Results as given in ChEMBL document CHEMBL5338769, “Discovery of Norisoboldine Analogue III11 as a Novel and Potent Aryl Hydrocarbon Receptor Agonist for the Treatment of Ulcerative Colitis” (J Med Chem, 2023).
Activity calls are given as the source filed them. The calls are words filed in the database; no cut-off is given here.

Assays:
[1] = Upregulation of GATA3 expression level in DSS-induced ulcerative colitis C57BL/6 mouse model assessed as fold change at 20 mg/kg, po administered once a day for 10 days by qRT-PCR analysis; type: functional; conditions: time 10 day
[2] = target: T1, Aryl hydrocarbon receptor (Mus musculus, UniProt P30561); assay: Induction of AhR nuclear translocation in C57BL/6 mouse naive T cells at 1 to 10 uM incubated for 48 hrs by immunofluorescence based inverted microscopic analysis; conditions: t cell, dose 1-10 µM
T1 sequence (P30561 whole entry): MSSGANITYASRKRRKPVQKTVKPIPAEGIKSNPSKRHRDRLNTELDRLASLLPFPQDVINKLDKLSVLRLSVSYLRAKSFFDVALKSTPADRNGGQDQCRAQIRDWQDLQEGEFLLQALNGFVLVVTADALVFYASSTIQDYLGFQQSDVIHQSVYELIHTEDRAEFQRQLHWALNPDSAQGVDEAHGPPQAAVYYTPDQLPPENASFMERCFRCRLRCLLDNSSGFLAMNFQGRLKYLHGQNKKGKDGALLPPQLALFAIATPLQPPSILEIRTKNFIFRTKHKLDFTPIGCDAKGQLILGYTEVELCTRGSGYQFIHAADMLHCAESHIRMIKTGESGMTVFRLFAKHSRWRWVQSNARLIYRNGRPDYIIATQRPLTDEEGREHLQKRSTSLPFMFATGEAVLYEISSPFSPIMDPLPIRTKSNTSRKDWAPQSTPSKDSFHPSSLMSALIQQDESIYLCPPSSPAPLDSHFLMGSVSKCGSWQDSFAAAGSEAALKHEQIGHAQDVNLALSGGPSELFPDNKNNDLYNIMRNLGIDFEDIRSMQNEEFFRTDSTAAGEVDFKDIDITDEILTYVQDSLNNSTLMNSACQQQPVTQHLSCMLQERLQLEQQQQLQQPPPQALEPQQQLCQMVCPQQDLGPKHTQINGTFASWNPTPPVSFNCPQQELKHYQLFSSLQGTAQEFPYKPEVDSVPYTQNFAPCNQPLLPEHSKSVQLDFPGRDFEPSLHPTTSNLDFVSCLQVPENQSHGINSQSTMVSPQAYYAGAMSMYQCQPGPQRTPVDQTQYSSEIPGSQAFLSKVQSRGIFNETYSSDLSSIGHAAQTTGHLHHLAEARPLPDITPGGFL

[3] = Half-life in Sprague-Dawley rat at 30 mg/kg, po measured upto 1440 min by LC-MS/MS analysis; type: ADME, organism-based; conditions: in vivo
[4] = Protein binding in rat plasma at 20.13 ug/ml of total concentration measured after 12 hrs by ultrafiltration based HPLC analysis; type: ADME, cell-free; conditions: at 20.13 µg/mL, read-out: PPB
[5] = Protein binding in rat plasma at 10.74 ug/ml of total concentration measured after 12 hrs by ultrafiltration based HPLC analysis; type: ADME, cell-free; conditions: at 10.74 µg/mL, read-out: PPB (converted)
[6] = target: T1, Aryl hydrocarbon receptor; assay: Activation of AhR transcription in C57BL/6 mouse naive T cells assessed as increase in AhRR mRNA expression at 1 to 3 uM by qRT-PCR analysis; type: cell-based; conditions: t cell, dose 1-3 µM
Mus musculus [7] = assay: Anti-colitis activity against DSS-induced ulcerative colitis C57BL/6 mouse model assessed as decrease in disease activity index score at 20 mg/kg, po administered once a day for 10 days; type: functional, organism-based; conditions: time 10.0 day
[8] = Induction of cell differentiation in C57BL/6 mouse naive regulatory T cells assessed as increase in cell frequency at 0.3 uM incubated for 72 hrs by flow cytometric analysis (reference value: 24.9%); type: functional
[9] = Tmax in Sprague-Dawley rat at 30 mg/kg, po measured upto 1440 min by LC-MS/MS analysis; type: ADME, organism-based; conditions: in vivo
[10] = Unbound drug concentration in rat plasma at 10.74 ug/ml of total concentration measured after 12 hrs by ultrafiltration based HPLC analysis; type: ADME, cell-free; conditions: dose 10.74 µg/ml
Mus musculus [11] = assay: Anti-colitis activity in DSS-induced ulcerative colitis C57BL/6 mouse model assessed as CD4+CD25+Foxp3+ Treg cell percentage in spleen at 10 mg/kg, po administered once a day for 10 days by flow cytometric analysis (reference value: 3.3%); type: functional; conditions: time 10 day
Mus musculus [12] = assay: Anti-colitis activity against DSS-induced ulcerative colitis C57BL/6 mouse model assessed as increase in Foxp3 mRNA level by measuring fold change at 10 mg/kg, po administered once a day for 10 days by qRT-PCR analysis; type: functional; conditions: time 10 day
Mus musculus [13] = assay: Anti-colitis activity against DSS-induced ulcerative colitis C57BL/6 mouse model assessed as amelioration of mucosal architecture score by measuring ulceration in colon at 10 to 20 mg/kg, po administered once a day for 10 days by H&E staining based histopathological analysis; type: functional, organism-based; conditions: dose 10-20 mg/kg, time 10.0 day
Regulatory T cell = assay: Induction of cell differentiation in C57BL/6 mouse naive regulatory T cells at 1 uM incubated for 72 hrs by flow cytometric analysis; type: functional, cell-based
[14] = Half-life in Sprague-Dawley rat at 3 mg/kg, iv measured upto 1440 min by LC-MS/MS analysis; type: ADME, organism-based; conditions: in vivo
[15] = MRT in Sprague-Dawley rat at 3 mg/kg, iv measured upto 1440 min by LC-MS/MS analysis; type: ADME, organism-based; conditions: in vivo
Mus musculus [16] = assay: In vivo activation of AhR in C57BL/6 mouse assessed as increase in CYP1A1 mRNA expression at 10 to 20 mg/kg, po administered once a day for 10 days by qRT-PCR analysis; type: functional, organism-based; conditions: dose 10-20 mg/kg, time 10.0 day
[17] = Induction of cell differentiation in C57BL/6 mouse naive regulatory T cells assessed as increase in cell frequency at 3 uM incubated for 72 hrs by flow cytometric analysis (reference value: 24.9%); type: functional
Mus musculus [18] = assay: Anti-colitis activity against DSS-induced ulcerative colitis C57BL/6 mouse model assessed as amelioration of epithelial change score by measuring crypt abscesses in colon at 10 to 20 mg/kg, po administered once a day for 10 days by H&E staining based histopathological analysis; type: functional, organism-based; conditions: dose 10-20 mg/kg, time 10.0 day
EL4 = assay: Cytotoxicity against mouse EL4 cells assessed as reduction of cell vaibility at 10 uM incubated for 72 hrs by MTT assay; type: functional, cell-based
Mus musculus [19] = assay: Anti-colitis activity against DSS-induced ulcerative colitis C57BL/6 mouse model assessed as amelioration of inflammation severity in colon at 10 to 20 mg/kg, po administered once a day for 10 days by H&E staining based histopathological analysis; type: functional, organism-based; conditions: dose 10-20 mg/kg, time 10.0 day
[20] = Induction of cell differentiation in C57BL/6 mouse naive regulatory T cells assessed as increase in cell frequency at 10 uM incubated for 72 hrs by flow cytometric analysis (reference value: 24.9%); type: functional
[21] = Cmax in Sprague-Dawley rat at 30 mg/kg, po measured at 120 min by LC-MS/MS analysis; type: ADME, organism-based; parameters: dose 30 mg/kg, time 120 min, route po; conditions: in vivo
[22] = Cmax in Sprague-Dawley rat at 3 mg/kg, iv measured at 120 min by LC-MS/MS analysis; type: ADME, organism-based; parameters: time 120 min, dose 3 mg/kg, route iv; conditions: in vivo
Mus musculus [23] = assay: Anti-colitis activity in DSS-induced ulcerative colitis C57BL/6 mouse model assessed as CD4+CD25+Foxp3+ Treg cell percentage in spleen at 20 mg/kg, po administered once a day for 10 days by flow cytometric analysis (reference value: 3.3%); type: functional; conditions: time 10 day

COc1cc2c3c(c1)-c1ccc(O)cc1CC3NCC2 (stereo not given)
fold change (FC) [1]: 1.14 | Activity [2]: Active | half-life [3]: 2.69 h | fraction unbound at 12 h, 20.13 ug/ml [4]: 0.498 | fraction unbound at 12 h, 10.74 ug/ml [5]: 0.134 | Activity [6]: Active | Activity (Mus musculus [7]): Active | Activity [8]: 26.7% | Tmax [9]: 2 h | Cp(f) [10]: 1440 ng/mL | Activity (Mus musculus [11]): 3.2% | fold change (FC) (Mus musculus [12]): 1.88 | Activity (Mus musculus [13]): Active | Activity (Regulatory T cell): Active | half-life [14]: 2.24 h | MRT [15]: 3.07 h | Activity (Mus musculus [16]): Active | Activity [17]: 35.4% | Activity (Mus musculus [18]): Active | Activity (EL4): inactive | Activity (Mus musculus [19]): Active | Activity [20]: 41.7% | Cmax [21]: 789 ng/mL | Cmax [22]: 396 ng/mL | Activity (Mus musculus [23]): 4%
